Experiment in all cases: biochemical
Holding throughout (parameters): KINOMEscan competition binding panel (Eurofins DiscoverX), single concentration, percent inhibition
What all share (settings): read-out: 15 at 1 µM % inhibition

One experiment concerns the target PIK3CA(H1047L) (Homo sapiens, UniProt P42336, H1047L). The gist of the method:
(§1)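 KINOMEscan selectivity screen; >400 human kinases; compound at 1 µM, single concentration.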

The target in a further experiment is PRKD1 (Homo sapiens, UniProt Q15139). A digest of the protocol: as §1
Another experiment deals with PHKG1 (Homo sapiens, UniProt Q16816). A digest of the protocol: as §1
Another experiment has as its target MET (Homo sapiens, UniProt P08581). The gist of the method: as §1
The target in another experiment is FLT3(ITD,D835V) (Homo sapiens, UniProt P36888, D835V/ITD). The gist of the method: as §1
Experiment [1] addresses T1, ABL1(F317L)-nonphosphorylated (Homo sapiens, UniProt P00519, F317L).
T1 construct: nonphosphorylated
A digest of the protocol:
as §1

The target of experiment [2] is T2, ABL1(Y253F)-phosphorylated (Homo sapiens, UniProt P00519, Y253F).
T2 construct: phosphorylated
The gist of the method:
as §1

In a further experiment the target is T3, DRAK2 (Homo sapiens, UniProt O94768).
T3 construct: gene STK17B
A digest of the protocol:
as §1

A further experiment has as its target FLT3(N841I) (Homo sapiens, UniProt P36888, N841I). The gist of the method:
as §1

The next experiment has as its target PIK3CG (Homo sapiens, UniProt P48736). The gist of the method:
as §1

The target in a further experiment is T4, PCTK1 (Homo sapiens, UniProt Q00536).
T4 construct: gene CDK16
The gist of the method: as §1

In a further experiment the target is WNK4 (Homo sapiens, UniProt Q96J92). The gist of the method: as §1
The target in another experiment is KIT-autoinhibited (Homo sapiens, UniProt P10721). A digest of the protocol: as §1
A further experiment concerns the target PIKFYVE (Homo sapiens, UniProt Q9Y2I7). A digest of the protocol: as §1
In a further experiment the target is MARK3 (Homo sapiens, UniProt P27448). The gist of the method:
as §1

For the next experiment, the target named is AAK1 (Homo sapiens, UniProt Q2M2I8). A digest of the protocol:
as §1

In experiment [3] the target is T5, ABL1(M351T)-phosphorylated (Homo sapiens, UniProt P00519, M351T).
T5 construct: phosphorylated
A digest of the protocol: as §1

For a further experiment, the target named is T6, MST2 (Homo sapiens, UniProt Q13188).
T6 construct: gene STK3
A digest of the protocol: as §1

For experiment [4], the target named is EGFR(L747-S752del, P753S) (Homo sapiens, UniProt P00533, DEL747-752/P753S). A digest of the protocol:
as §1

The next experiment deals with SRC (Homo sapiens, UniProt P12931). A digest of the protocol:
as §1

Another experiment has as its target T7, NIK (Homo sapiens, UniProt Q99558).
T7 construct: gene MAP3K14
The gist of the method: as §1

In the next experiment the target is T8, ERK1 (Homo sapiens, UniProt P27361).
T8 construct: gene MAPK3
A digest of the protocol:
as §1

Another experiment deals with KIT(V559D) (Homo sapiens, UniProt P10721, V559D). A digest of the protocol:
as §1

For the next experiment, the target named is MAP4K4 (Homo sapiens, UniProt O95819). A digest of the protocol: as §1

The results in this text go back to article PMC7180948, “New Insights into 4-Anilinoquinazolines as Inhibitors of Cardiac Troponin I–Interacting Kinase (TNNi3K)” (Molecules, 2020).

One may read the inhibition as the drop in the measured response relative to a control, in per cent.

WNK4, sequence (Q96J92 whole entry): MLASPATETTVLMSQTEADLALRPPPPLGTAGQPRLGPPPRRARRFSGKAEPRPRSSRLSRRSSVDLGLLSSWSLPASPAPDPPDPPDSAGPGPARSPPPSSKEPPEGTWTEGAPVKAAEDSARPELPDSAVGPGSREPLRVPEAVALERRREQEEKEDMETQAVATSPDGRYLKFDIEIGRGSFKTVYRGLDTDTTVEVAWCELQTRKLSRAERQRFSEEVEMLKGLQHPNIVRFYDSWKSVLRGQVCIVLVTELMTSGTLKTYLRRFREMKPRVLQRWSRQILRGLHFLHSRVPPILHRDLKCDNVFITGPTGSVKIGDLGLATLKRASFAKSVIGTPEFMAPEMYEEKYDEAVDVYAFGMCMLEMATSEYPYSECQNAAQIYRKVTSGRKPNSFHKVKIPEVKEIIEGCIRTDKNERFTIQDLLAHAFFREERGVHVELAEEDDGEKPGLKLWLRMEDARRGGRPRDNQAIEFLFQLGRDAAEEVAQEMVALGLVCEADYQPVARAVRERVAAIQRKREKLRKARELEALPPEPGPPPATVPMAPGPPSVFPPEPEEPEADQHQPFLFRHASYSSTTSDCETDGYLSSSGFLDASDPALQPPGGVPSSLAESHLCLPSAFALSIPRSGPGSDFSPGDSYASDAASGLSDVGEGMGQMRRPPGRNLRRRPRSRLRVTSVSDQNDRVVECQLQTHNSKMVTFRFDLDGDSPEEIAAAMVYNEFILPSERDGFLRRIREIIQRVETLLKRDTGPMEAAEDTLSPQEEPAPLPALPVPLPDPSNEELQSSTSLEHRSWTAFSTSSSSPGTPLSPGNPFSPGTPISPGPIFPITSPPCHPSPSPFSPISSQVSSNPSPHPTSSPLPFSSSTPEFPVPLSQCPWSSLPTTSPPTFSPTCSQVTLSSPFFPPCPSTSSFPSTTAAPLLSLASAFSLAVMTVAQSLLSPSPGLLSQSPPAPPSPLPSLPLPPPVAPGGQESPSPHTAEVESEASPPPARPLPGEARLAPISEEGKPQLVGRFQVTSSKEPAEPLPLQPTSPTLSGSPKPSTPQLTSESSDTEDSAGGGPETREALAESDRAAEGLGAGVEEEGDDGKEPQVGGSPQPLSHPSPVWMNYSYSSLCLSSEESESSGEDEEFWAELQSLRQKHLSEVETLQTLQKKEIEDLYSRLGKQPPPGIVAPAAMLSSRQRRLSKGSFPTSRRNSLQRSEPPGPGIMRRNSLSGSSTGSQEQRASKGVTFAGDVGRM
MAP4K4, sequence (O95819 whole entry): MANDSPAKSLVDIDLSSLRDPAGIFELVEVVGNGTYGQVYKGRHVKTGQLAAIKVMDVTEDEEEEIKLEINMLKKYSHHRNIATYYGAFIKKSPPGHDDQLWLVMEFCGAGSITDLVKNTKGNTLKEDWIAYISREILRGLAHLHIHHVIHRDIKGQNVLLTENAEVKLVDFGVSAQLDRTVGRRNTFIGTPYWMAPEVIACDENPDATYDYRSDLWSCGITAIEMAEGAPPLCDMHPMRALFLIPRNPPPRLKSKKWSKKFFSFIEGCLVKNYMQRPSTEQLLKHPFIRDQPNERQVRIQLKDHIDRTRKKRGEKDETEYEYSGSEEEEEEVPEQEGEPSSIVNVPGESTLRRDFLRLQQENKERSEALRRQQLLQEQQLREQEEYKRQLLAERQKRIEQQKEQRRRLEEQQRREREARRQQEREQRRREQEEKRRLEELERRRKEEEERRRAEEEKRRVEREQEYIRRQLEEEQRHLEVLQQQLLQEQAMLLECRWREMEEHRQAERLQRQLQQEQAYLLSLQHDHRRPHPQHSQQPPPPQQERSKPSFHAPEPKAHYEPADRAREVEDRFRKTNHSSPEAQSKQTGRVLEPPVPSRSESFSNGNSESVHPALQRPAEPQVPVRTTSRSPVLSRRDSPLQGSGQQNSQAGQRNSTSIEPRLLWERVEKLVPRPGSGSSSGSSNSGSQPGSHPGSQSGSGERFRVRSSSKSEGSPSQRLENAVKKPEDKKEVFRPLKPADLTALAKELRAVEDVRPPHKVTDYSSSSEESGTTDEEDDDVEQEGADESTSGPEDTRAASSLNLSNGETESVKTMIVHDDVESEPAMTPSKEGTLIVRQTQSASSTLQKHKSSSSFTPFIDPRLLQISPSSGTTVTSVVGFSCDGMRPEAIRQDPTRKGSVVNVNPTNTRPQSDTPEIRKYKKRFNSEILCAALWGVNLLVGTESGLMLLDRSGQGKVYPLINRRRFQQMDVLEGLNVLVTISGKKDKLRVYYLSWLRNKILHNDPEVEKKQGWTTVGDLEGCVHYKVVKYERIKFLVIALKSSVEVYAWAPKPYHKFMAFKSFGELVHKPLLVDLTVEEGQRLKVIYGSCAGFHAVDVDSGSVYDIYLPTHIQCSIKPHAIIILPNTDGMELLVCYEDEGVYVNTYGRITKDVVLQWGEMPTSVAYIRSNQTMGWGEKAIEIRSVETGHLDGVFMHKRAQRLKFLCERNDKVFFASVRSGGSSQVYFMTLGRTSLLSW
KIT(V559D), sequence (P10721 whole entry V559D): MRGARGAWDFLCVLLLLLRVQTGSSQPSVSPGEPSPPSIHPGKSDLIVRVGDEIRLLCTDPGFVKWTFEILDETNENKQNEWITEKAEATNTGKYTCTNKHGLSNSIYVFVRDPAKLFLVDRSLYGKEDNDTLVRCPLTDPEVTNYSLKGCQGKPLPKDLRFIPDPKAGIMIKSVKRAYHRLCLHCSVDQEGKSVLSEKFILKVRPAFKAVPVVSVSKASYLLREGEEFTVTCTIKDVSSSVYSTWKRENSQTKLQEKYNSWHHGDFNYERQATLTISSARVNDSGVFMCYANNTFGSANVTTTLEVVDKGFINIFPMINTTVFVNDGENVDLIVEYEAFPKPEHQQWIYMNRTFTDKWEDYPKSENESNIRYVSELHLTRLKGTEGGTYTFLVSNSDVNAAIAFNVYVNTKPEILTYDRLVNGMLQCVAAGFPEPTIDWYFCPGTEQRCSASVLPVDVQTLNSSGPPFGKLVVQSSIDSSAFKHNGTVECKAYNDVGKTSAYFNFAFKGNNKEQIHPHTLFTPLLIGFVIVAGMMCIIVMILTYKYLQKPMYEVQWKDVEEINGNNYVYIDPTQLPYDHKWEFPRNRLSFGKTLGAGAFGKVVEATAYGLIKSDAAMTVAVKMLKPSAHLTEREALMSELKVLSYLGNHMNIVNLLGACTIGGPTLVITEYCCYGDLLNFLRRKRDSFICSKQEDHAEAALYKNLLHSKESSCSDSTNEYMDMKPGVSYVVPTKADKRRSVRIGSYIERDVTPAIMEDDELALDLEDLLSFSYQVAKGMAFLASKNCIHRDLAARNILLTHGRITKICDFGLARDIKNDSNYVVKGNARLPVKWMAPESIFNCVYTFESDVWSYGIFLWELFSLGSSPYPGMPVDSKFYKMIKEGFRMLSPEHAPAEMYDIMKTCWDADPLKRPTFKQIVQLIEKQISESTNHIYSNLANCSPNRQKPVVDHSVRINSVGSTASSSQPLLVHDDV
PRKD1, sequence (Q15139 whole entry): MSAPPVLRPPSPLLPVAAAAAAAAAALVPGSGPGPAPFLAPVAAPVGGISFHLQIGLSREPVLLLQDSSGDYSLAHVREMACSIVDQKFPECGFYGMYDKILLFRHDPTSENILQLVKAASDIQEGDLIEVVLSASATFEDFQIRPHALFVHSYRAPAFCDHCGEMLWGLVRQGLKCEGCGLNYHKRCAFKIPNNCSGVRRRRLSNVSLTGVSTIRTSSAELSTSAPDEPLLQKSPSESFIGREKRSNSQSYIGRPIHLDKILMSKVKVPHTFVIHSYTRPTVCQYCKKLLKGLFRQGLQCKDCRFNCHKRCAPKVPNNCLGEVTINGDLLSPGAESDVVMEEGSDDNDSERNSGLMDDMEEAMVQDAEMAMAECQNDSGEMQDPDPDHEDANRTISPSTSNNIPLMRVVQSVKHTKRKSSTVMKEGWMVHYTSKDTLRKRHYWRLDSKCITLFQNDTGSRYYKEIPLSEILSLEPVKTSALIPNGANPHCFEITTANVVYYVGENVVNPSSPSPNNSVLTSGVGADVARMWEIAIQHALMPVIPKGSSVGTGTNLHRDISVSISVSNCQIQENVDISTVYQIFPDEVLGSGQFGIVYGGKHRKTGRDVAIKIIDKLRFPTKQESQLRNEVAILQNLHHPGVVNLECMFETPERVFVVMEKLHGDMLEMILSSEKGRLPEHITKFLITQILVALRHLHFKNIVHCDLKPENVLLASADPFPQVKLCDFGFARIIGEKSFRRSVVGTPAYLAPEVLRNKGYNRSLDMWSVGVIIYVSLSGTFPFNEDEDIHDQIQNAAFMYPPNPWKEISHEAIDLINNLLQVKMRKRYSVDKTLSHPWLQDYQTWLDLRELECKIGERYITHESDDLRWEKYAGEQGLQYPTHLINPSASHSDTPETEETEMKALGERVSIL
T3 sequence (O94768 whole entry): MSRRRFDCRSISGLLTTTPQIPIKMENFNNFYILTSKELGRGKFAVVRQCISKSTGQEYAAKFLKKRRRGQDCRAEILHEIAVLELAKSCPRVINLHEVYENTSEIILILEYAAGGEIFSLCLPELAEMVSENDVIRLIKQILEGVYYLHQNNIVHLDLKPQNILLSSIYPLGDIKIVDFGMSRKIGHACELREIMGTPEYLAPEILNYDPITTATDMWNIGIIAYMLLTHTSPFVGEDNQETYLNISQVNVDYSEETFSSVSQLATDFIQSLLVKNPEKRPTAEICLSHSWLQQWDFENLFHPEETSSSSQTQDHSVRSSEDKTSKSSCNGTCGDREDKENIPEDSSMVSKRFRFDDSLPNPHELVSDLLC
KIT-autoinhibited, sequence (P10721 whole entry): as the sequence (P10721 whole entry V559D) above, with D559V counted along it

`CNS(=O)(=O)c1ccc(N(C)C)c(Nc2nc(C)nc3cc(OC)c(OC)cc23)c1` [compound 15, 3-((6,7-dimethoxy-2-methylquinazolin-4-yl)amino)-4-(dimethylamino)-N-methylbenzenesulfonamide]: the inhibition at 1 µM at PIK3CA(H1047L) was determined as 21%; at PRKD1, 15%; at PHKG1, 0%; at MET, 0%; on FLT3(ITD,D835V) it was 26%; in experiment [1], 33%. For the same compound, the inhibition at 1 µM was found to be 18% in experiment [2]; 0% at DRAK2; 0% at FLT3(N841I); 0% at PIK3CG; 22% on PCTK1; 0% on WNK4. Moreover, the inhibition at 1 µM worked out at 19% on KIT-autoinhibited; 13% on PIKFYVE; 0% on MARK3; 4% at AAK1; 0% in experiment [3]; 4% on MST2. Moreover, the inhibition at 1 µM turned out to be 11% in [4]; 0% at SRC; 12% on NIK; 0% at ERK1; 0% at KIT(V559D); 9% on MAP4K4.
